Results taken from PMC5966509 (Scientific Reports, 2018).

Biological target: T1, hA3G (human APOBEC3G) (Homo sapiens, UniProt Q9HC16)
T1 construct: 10067; biotinylated with NHS-biotin 3:1
Test: biolayer interferometry (Octet RED, super streptavidin sensors)
Format: binding
Details: biotinylated hA3G immobilised; 5% DMSO; kinetic constant from kon/koff

T1 sequence (Q9HC16 whole entry): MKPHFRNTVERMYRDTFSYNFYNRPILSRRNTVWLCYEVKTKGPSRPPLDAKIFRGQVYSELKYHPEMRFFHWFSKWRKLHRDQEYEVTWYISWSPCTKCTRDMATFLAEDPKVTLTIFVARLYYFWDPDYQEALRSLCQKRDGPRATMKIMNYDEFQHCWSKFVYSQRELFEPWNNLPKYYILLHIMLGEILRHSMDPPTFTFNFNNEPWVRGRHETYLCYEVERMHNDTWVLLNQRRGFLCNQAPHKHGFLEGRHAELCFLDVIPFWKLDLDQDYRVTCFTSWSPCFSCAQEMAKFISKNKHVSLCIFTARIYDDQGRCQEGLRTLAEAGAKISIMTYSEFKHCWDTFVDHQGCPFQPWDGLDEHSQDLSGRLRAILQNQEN

Ligand (hA3G) / KD (M): 1.56E − 05 M
Substance: IMB-301
